A short description of data set [1]: supersaturated solution: remaining in solution after heating and cooling. The class given is physicochemical. Here is the method: Felbamate was added at a concentration of up to 20 weight per volume percent to polyethylene glycol 300 and polyethylene glycol 400. Solutions were heated above 70° C. after which the felbamate dissolved.
Felbamate was added at a concentration of up to 10 weight per volume percent in 65 volume per volume percent polyethylene glycol 300, 20 volume per volume percent polyethylene glycol 400, and 15 volume per volume percent propylene glycol. In a separate experiment, felbamate was added at a concentration of up to 10 weight per volume percent in 65 volume per volume percent polyethylene glycol 300, 20 volume per volume percent polyethylene glycol 400, 10 volume per volume percent propylene glycol, and 5 volume per volume percent polyethylene glycol 600.
Solutions were heated above 70° C. after which the felbamate dissolved.
Fluorofelbamate was added at a concentration of 10 weight per volume percent to polyethylene glycol 300. Solutions were heated above approximately 80° C. after which the fluorofelbamate dissolved.

Data set [2] in a line: injection of supersaturated solution into 37° C. phosphate buffered saline. It counts as physicochemical. Here is the method:
A supersaturated 10 weight per volume percent felbamate solution in PEG 300 was injected into 37° C. phosphate buffered saline. […] Additional felbamate supersaturated solution at the same concentration was added 10 microliters at a time without forming solid particles up to at least 50 microliters.

Data set [3] is described as follows: SEM imaging of precipitated microparticles. It counts as physicochemical. The procedure: Felbamate was dissolved in dimethyl sulfoxide to create a five weight per volume percent solution. The felbamate solution was introduced into one hundred times the volume of a one weight per volume percent polysorbate 20 aqueous solution stirred at 1,500 revolutions per minute using an overhead mixer equipped with an impeller blade. The resultant microparticles of felbamate were imaged using SEM. […] Under the same experimental conditions, Span 80 was substituted for polysorbate 20.
Felbamate was dissolved in glycerin heated above 120° C. to create a 5% weight per volume solution. The felbamate solution was introduced into one hundred times the volume of a one weight per volume percent polysorbate 20 aqueous solution stirred at 1,500 revolutions per minute using an overhead mixer equipped with an impeller blade. The resultant microparticles of felbamate were imaged using SEM.

For data set [4] the following is noted: cited from earlier work.
The target of a further data set is CYP2C19 (Homo sapiens, UniProt P33261). The conditions noted are these: cited from earlier work.
CYP2C19, sequence (P33261 whole entry): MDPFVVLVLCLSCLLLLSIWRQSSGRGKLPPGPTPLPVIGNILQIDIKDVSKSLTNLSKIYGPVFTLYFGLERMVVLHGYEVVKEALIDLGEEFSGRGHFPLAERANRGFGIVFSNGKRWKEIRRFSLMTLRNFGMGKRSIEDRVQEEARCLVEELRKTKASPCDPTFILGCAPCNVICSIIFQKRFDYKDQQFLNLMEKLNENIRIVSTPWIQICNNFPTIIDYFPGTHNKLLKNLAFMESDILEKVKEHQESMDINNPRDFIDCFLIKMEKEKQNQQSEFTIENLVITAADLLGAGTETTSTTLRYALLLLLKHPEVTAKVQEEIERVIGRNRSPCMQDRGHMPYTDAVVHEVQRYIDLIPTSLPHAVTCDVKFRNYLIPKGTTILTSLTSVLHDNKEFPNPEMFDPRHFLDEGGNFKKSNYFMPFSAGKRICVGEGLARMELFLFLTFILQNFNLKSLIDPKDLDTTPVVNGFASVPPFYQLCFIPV
For data set [5] the following is noted: cited from earlier work. The source holds these as a separate data set.

Take `NC(=O)OCC(COC(N)=O)c1ccccc1` [Felbamate]: the “solution state after heating or cooling” value in data set [1] (PEG 300 / PEG 400 sample heated or cooled to 40° C., 4° C., and −20° C. for 30 minutes, then returned to 25° C.) was “remained in solution”. Moreover, in data set [1] (polyethylene glycol 300 and polyethylene glycol 400, heated above 70° C., cooled to room temperature approx. 25°), the “concentration of samples that remained in solution” value is recorded as ≤ 12.5 weight per volume percent. The “time remained in solution” value in data set [1] (up to 10 w/v % in 65 v/v % PEG 300, 20 v/v % PEG 400, 10 v/v % propylene glycol, 5 v/v % PEG 600, approx. 25° C.) is “at least 1 day”; in data set [1] (up to 10 w/v % in 65 v/v % PEG 300, 20 v/v % PEG 400, 15 v/v % propylene glycol, approx. 25° C.) it was “at least 1 day”; in data set [1] (up to approx. 12.5 weight per volume percent in polyethylene glycol 300 and polyethylene glycol 400, room temperature approx. 25°) it was “at least eight”. For the same compound, the “volume of additional supersaturated solution added without forming solid particles” value in data set [2] (10 w/v % in PEG 300, added 10 microliters at a time to 37° C. phosphate buffered saline) was “at least 50 microliters”. For the same compound, the “solid particles on injection” value in data set [2] (supersaturated 10 w/v % solution in PEG 300 injected into 37° C. phosphate buffered saline) is “No solid particles were observed”. Moreover, the “particle size by SEM” value in data set [3] (glycerin / polysorbate 20 microparticles compared with native powder) is “hundreds of microns”. Besides, the particle form entry in data set [3] (same conditions, Span 80 substituted for polysorbate 20) is reported as “formed crystals, which are unsuitable for injection”. Besides, the solubility in water entry in data set [4] is on record as “less than one”. Also, the “effect on CYP2C19” value at CYP2C19 is “inhibitor”. The “share of aplastic anemia cases that are fatal” value in data set [5] (chronic oral dosing) is on record as 30%. Moreover, in data set [5] (single administration), the “aplastic anemia after a single administration” value is on record as “has not been shown to develop”.

With `NC(=O)OCC(F)(COC(N)=O)c1ccccc1` [Fluorofelbamate], the “time remained in solution” value in data set [1] (10 w/v % in polyethylene glycol 300, heated above approx. 80° C., cooled to approx. 25°) is “at least 1 month”. The solubility in water result in data set [4] is given as “less than one”.
